Data from patent publication US20250236608A1, “EGFR INHIBITORS” (Blueprint Medicines Corporation, priority 2022, published 2025).

Tests used:
EGFR L858R = EGFR L858R (Homo sapiens (Human), UniProt P00533, L858R); assay: Biochemical EGFR inhibition assay, EGFR L858R; details: Caliper mobility shift; 1.0 mM ATP or ATP Km; read-out: Enz EGFR_L858R IC50
EGFR (d746-750) = EGFR (d746-750) (Homo sapiens (Human), UniProt P00533, DEL746-750); assay: Biochemical EGFR inhibition assay, EGFR (d746-750); details: Caliper mobility shift; 1.0 mM ATP or ATP Km; read-out: Enz EGFR_Exon19-del746-750 IC50
[1] = molecular target: pEGFR (Tyr1068) in PC-9 cells (Ex19Del) (Homo sapiens (Human), UniProt P00533, DEL746-750); assay: PC-9 pEGFR AlphaLISA assay; type: cell-based; details: 4 hours incubation, p-EGFR (Tyr1068) AlphaLISA, read-out: Ext pEGFR_PC-9 Ex19Del IC50
Procedure, shortened: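 Readout: AlphaLISA SureFire Ultra signal in cell lysates, with acceptor beads for 1.5-2 h and donor beads overnight at room temperature in the dark. Beforehand, unstimulated cells in 10% FBS medium received compounds (10 points, 4-fold steps) for 4 h at 37° C. IC50 came from percent inhibition curves.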

EGFR (d746-750), sequence (P00533 other isoform, or with tags, fused parts or gaps del 1-694/del 746-750 limits assumed): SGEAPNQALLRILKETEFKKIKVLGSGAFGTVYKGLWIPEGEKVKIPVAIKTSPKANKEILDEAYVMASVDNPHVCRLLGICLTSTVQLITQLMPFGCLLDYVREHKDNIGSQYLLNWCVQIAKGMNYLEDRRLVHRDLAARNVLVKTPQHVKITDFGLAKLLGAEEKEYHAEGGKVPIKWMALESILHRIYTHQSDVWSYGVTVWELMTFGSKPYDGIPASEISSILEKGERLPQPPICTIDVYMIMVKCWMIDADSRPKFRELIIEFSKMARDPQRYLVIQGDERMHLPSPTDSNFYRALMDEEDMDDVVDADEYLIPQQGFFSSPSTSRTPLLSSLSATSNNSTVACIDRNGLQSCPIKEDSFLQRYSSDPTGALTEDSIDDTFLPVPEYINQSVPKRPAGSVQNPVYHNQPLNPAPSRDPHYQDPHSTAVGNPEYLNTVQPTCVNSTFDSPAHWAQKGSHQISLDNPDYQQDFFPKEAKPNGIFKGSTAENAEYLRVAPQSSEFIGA
pEGFR (Tyr1068) in PC-9 cells (Ex19Del), sequence (P00533 other isoform, or with tags, fused parts or gaps del 746-750): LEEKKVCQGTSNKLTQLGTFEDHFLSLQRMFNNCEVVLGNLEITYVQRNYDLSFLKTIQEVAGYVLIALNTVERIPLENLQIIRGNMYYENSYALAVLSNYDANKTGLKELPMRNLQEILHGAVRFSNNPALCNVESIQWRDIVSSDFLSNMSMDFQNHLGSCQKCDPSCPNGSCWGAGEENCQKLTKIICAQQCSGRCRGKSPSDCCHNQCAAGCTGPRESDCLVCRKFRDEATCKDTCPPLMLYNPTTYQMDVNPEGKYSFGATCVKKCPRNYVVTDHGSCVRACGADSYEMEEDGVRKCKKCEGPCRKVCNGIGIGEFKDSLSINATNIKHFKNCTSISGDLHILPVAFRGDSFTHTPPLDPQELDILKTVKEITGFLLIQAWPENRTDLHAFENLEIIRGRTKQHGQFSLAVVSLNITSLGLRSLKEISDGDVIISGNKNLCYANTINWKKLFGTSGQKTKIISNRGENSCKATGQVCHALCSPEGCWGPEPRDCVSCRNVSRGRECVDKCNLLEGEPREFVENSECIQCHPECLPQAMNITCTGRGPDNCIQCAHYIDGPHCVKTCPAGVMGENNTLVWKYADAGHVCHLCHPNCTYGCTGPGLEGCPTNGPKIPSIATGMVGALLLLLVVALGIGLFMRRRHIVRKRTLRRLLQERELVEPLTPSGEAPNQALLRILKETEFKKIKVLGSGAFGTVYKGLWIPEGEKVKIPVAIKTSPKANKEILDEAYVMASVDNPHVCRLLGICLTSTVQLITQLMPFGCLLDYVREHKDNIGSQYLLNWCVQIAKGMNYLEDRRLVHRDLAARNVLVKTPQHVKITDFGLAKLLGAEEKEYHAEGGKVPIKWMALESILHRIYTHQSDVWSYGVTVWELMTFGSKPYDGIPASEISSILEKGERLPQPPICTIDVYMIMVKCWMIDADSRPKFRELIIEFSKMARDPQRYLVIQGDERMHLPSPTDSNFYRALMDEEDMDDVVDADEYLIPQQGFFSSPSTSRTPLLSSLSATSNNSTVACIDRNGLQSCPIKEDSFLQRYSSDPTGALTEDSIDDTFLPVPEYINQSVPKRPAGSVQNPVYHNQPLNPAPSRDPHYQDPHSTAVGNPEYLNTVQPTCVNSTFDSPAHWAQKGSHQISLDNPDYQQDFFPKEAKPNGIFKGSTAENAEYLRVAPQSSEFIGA
EGFR L858R, sequence (P00533 25-1210 L858R): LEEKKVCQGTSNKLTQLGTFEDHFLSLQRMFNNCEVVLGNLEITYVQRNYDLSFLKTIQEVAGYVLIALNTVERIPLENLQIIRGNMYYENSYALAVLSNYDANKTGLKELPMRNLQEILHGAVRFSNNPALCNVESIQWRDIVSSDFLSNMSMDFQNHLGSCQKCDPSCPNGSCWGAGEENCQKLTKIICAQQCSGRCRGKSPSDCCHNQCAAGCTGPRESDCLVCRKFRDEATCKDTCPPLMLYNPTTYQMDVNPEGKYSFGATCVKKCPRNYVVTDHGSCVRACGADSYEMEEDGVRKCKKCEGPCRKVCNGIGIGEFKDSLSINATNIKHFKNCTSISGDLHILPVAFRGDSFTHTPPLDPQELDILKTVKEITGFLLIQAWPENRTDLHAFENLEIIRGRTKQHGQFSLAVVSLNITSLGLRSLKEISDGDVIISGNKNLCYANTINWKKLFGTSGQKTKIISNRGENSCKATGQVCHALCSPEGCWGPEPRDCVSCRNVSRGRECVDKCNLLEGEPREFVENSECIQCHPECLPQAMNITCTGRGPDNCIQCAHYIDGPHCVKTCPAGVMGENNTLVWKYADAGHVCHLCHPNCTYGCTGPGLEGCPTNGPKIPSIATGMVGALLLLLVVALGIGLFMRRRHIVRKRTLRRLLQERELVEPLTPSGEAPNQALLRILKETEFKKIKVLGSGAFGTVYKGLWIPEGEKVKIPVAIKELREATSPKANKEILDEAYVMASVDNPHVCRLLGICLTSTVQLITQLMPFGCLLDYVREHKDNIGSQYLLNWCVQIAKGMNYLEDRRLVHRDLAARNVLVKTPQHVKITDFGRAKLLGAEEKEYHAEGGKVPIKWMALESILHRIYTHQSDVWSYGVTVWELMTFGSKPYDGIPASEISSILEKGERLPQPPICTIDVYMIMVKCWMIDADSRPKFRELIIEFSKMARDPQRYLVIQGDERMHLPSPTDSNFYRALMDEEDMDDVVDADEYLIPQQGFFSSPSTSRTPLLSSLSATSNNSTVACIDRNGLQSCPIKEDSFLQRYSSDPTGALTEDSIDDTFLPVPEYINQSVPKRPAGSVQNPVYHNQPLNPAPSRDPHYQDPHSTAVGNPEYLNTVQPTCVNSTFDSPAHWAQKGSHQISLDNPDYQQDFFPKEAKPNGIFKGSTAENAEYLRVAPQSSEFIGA

## C[C@H](O)c1cc2c(-c3cn(CC(F)F)nc3-c3ccccc3)ncnc2cc1O[C@H]1CCOC1 (single isomer, unassigned) [Example 117, (S)-1-(4-(1-(2,2-difluoroethyl)-3-phenyl-1H-pyrazol-4-yl)-7-(((S)-tetrahydrofuran-3-yl)oxy)quinazolin-6-yl)ethan-1-ol or (R)-1-(4-(1-(2,2-difluoroethyl)-3-phenyl-1H-pyrazol-4-yl)-7-(((S)-tetrahydrofuran-3-yl)oxy)quinazolin-6-yl)ethan-1-ol]
EGFR L858R
  IC50: 1.9 nM
EGFR (d746-750)
  IC50: 0.6 nM
[1]
  IC50: 3.4 nM

## CCOc1cc2ncnc(-c3cn(C)nc3-c3ccccc3)c2nc1NC(=O)[C@@]12C[C@@H]1CN(C)C2 (single isomer, unassigned) [Example 377, (1S,5S)—N-(7-ethoxy-4-(1-methyl-3-phenyl-1H-pyrazol-4-yl)pyrido[3,2-d]pyrimidin-6-yl)-3-methyl-3-azabicyclo[3.1.0]hexane-1-carboxamide or (1R,5R)—N-(7-ethoxy-4-(1-methyl-3-phenyl-1H-pyrazol-4-yl)pyrido[3,2-d]pyrimidin-6-yl)-3-methyl-3-azabicyclo[3.1.0]hexane-1-carboxamide]
EGFR L858R
  IC50: 2.2 nM
EGFR (d746-750)
  IC50: 1.3 nM
[1]
  IC50: 2.8 nM

## COc1cc2ncnc(-c3cn(C4CC4)nc3-c3ccccc3)c2nc1NC(=O)[C@@]12C[C@@H]1CN(C)C2 (single isomer, unassigned) [Example 406, (1S,5S)—N-(4-(1-cyclopropyl-3-phenyl-1H-pyrazol-4-yl)-7-methoxypyrido[3,2-d]pyrimidin-6-yl)-3-methyl-3-azabicyclo[3.1.0]hexane-1-carboxamide or (1R,5R)—N-(4-(1-cyclopropyl-3-phenyl-1H-pyrazol-4-yl)-7-methoxypyrido[3,2-d]pyrimidin-6-yl)-3-methyl-3-azabicyclo[3.1.0]hexane-1-carboxamide]
EGFR L858R
  IC50: 1.2 nM
EGFR (d746-750)
  IC50: 0.7 nM
[1]
  IC50: 0.9 nM

## COc1cc2ncnc(-c3cn(C)nc3-c3ccccc3)c2cc1-c1ccc2c(c1)CN(C)C2=O [Example 137, 5-(7-methoxy-4-(1-methyl-3-phenyl-1H-pyrazol-4-yl)quinazolin-6-yl)-2-methylisoindolin-1-one]
EGFR L858R
  IC50: 3.9 nM
EGFR (d746-750)
  IC50: 2.2 nM
[1]
  IC50: 3.6 nM

## COc1cc2ncnc(-c3cn(C)nc3-c3ccccc3)c2cc1NC(=O)N1CCO[C@@H]2C[C@@H]21 (stereo in doubt) [Example 185, N-[7-methoxy-4-(1-methyl-3-phenyl-1H-pyrazol-4-yl)quinazolin-6-yl]-2-oxa-5-azabicyclo[4.1.0]heptane-5-carboxamide]
EGFR L858R
  IC50: 2.1 nM
EGFR (d746-750)
  IC50: 1.3 nM
[1]
  IC50: 3.1 nM

## COc1cc2ncnc(-c3cn(C)nc3-c3ccccc3)c2cc1C(C)(C)O [Example 121, 2-(7-methoxy-4-(1-methyl-3-phenyl-1H-pyrazol-4-yl)quinazolin-6-yl) propan-2-ol]
EGFR L858R
  IC50: 7.6 nM
EGFR (d746-750)
  IC50: 2.7 nM
[1]
  IC50: 13.8 nM

## COc1cc2ncnc(-c3cn(C)nc3-c3ccccc3)c2cc1[C@H]1CN(C)CCO1 (single isomer, unassigned) [Example 129, (S)-2-(7-methoxy-4-(1-methyl-3-phenyl-1H-pyrazol-4-yl)quinazolin-6-yl)-4-methylmorpholine or (R)-2-(7-methoxy-4-(1-methyl-3-phenyl-1H-pyrazol-4-yl)quinazolin-6-yl)-4-methylmorpholine]
EGFR L858R
  IC50: 4.3 nM
EGFR (d746-750)
  IC50: 1.1 nM
[1]
  IC50: 2.7 nM

## COc1cc2ncnc(-c3cn(C)nc3-c3ccccc3)c2cc1O[C@H]1CN(C)C[C@@H]1F [Example 6, 6-(((3S,4S)-4-fluoro-1-methylpyrrolidin-3-yl)oxy)-7-methoxy-4-(1-methyl-3-phenyl-1H-pyrazol-4-yl)quinazoline]
EGFR L858R
  IC50: 2.3 nM
EGFR (d746-750)
  IC50: 1.7 nM
[1]
  IC50: 3.5 nM

## COc1cc2ncnc(-c3cn(C)nc3-c3ccccc3)c2cc1NC(=O)C1CC(OC)C1 (stereo not drawn) [Example 215, 3-methoxy-N-(7-methoxy-4-(1-methyl-3-phenyl-1H-pyrazol-4-yl)quinazolin-6-yl)cyclobutane-1-carboxamide]
EGFR L858R
  IC50: 2.7 nM
EGFR (d746-750)
  IC50: 1.6 nM
[1]
  IC50: 1.1 nM

## [2H]C([2H])([2H])N1CCN(C(=O)Oc2cc3c(-c4cn(C)nc4-c4ccccc4)ncnc3cc2OC)[C@@H](C)C1 [Example 93, 7-methoxy-4-(1-methyl-3-phenyl-1H-pyrazol-4-yl)quinazolin-6-yl(S)-2-methyl-4-(methyl-d3) piperazine-1-carboxylate]
EGFR L858R
  IC50: 4.3 nM
EGFR (d746-750)
  IC50: 2.5 nM
[1]
  IC50: 4.3 nM

## COc1cc2ncnc(-c3cn(C)nc3-c3ccccc3)c2nc1NC(=O)C12CC(C1)C2 [Example 309, N-(7-methoxy-4-(1-methyl-3-phenyl-1H-pyrazol-4-yl)pyrido[3,2-d]pyrimidin-6-yl)bicyclo[1.1.1]pentane-1-carboxamide]
EGFR L858R
  IC50: 3.1 nM
EGFR (d746-750)
  IC50: 1.9 nM
[1]
  IC50: 2.8 nM

## COc1cc2ncnc(-c3cn(C)nc3-c3ccccc3)c2nc1NC(=O)C1(C)CCCO1 (stereo not drawn) [Example 316, N-(7-methoxy-4-(1-methyl-3-phenyl-1H-pyrazol-4-yl)pyrido[3,2-d]pyrimidin-6-yl)-2-methyltetrahydrofuran-2-carboxamide]
EGFR L858R
  IC50: 3.5 nM
EGFR (d746-750)
  IC50: 0.8 nM
[1]
  IC50: 3.1 nM

## COc1cc2ncnc(-c3cn(C)nc3-c3ccccc3)c2cc1NC(=O)c1c(C)cccc1F [Example 201, 2-fluoro-N-(7-methoxy-4-(1-methyl-3-phenyl-1H-pyrazol-4-yl)quinazolin-6-yl)-6-methylbenzamide]
EGFR L858R
  IC50: 2 nM
EGFR (d746-750)
  IC50: 1.4 nM
[1]
  IC50: 3.8 nM

## COc1cc2ncnc(-c3cn(C)nc3-c3ccccc3)c2cc1NC(=O)c1cncc(F)c1 [Example 327, 5-fluoro-N-(7-methoxy-4-(1-methyl-3-phenyl-1H-pyrazol-4-yl)quinazolin-6-yl)nicotinamide]
EGFR L858R
  IC50: 10.4 nM
EGFR (d746-750)
  IC50: 5.1 nM
[1]
  IC50: 10.4 nM

## COc1cc2ncnc(-c3cn(C)nc3-c3ccccc3)c2nc1NC(=O)c1cn(C(F)(F)F)nc1C [Example 428, N-(7-methoxy-4-(1-methyl-3-phenyl-1H-pyrazol-4-yl)pyrido[3,2-d]pyrimidin-6-yl)-3-methyl-1-(trifluoromethyl)-1H-pyrazole-4-carboxamide]
EGFR L858R
  IC50: 3.9 nM
EGFR (d746-750)
  IC50: 1.2 nM
[1]
  IC50: 7.7 nM

## COc1cc2ncnc(-c3cn(C)nc3-c3ccccc3)c2nc1OC(C)c1cocn1 (stereo not drawn) [Example 28, 4-(1-((7-methoxy-4-(1-methyl-3-phenyl-1H-pyrazol-4-yl)pyrido[3,2-d]pyrimidin-6-yl)oxy)ethyl)oxazole]
EGFR L858R
  IC50: 1.2 nM
EGFR (d746-750)
  IC50: 0.9 nM
[1]
  IC50: 0.7 nM

## Cn1cc(-c2ncnc3cc(OC(F)F)c(NC(=O)c4ccc(C5CC5)nc4)nc23)c(-c2ccccc2)n1 [Example 470, 6-cyclopropyl-N-[7-(difluoromethoxy)-4-(1-methyl-3-phenyl-1H-pyrazol-4-yl)pyrido[3,2-d]pyrimidin-6-yl]pyridine-3-carboxamide]
EGFR L858R
  IC50: 26 nM
EGFR (d746-750)
  IC50: 4.5 nM
[1]
  IC50: 23.8 nM

## COc1cc2ncnc(-c3cn(C)nc3-c3ccccc3)c2cc1OC(=O)N1CCN(C)[C@H](C)[C@@H]1C [Example 98, 7-methoxy-4-(1-methyl-3-phenyl-1H-pyrazol-4-yl)quinazolin-6-yl (2S,3R)-2,3,4-trimethylpiperazine-1-carboxylate]
EGFR L858R
  IC50: 6.8 nM
EGFR (d746-750)
  IC50: 3.4 nM
[1]
  IC50: 9.3 nM
